Measured values published in US20250361274A1, “PEPTIDE AND PEPTIDE-CONTAINING AGENT” (PEPTIDREAM INC., priority 2022, published 2025).
Entries after “also recorded” stand apart in the source; their conditions may differ. Numbered stars: 1 amine (or outer) side, 2 acyl side, 3 side chain; on linkers, the order of the positions; unused ones are H or OH. Bridge positions count the residues as written; N and C are the ends. Square brackets hold non-standard residues; d marks the D form. Peptide text beside a SMILES is read from it. ξ: configuration not given here. X2 = O=C(C[C@@H](Cc1ccc(-c2ccccc2)cc1)C(=O)[*:2])[C@@H]1CCCN1[*:1]; Phe(4-COOH) = N[C@@H](Cc1ccc(C(=O)O)cc1)C(=O)O; Bip = N[C@@H](Cc1ccc(-c2ccccc2)cc1)C(=O)O; Nle(6-COOH) = N[C@@H](CCCCC(=O)O)C(=O)O; X1 = N=C(CN)NCCC[C@H](N[*:1])C(=O)[*:2]; Ala(4-THP) = N[C@@H](CC1CCOCC1)C(=O)O; ξE = NC(CCC(=O)O)C(=O)O; βAla = NCCC(=O)O

What was measured:
Assay type in all cases: cell-based
BMP7 = target: T1, BMP7 (Homo sapiens, UniProt P18075); test: BMP7 signal transduction inhibitory activity: SMAD1 phosphorylation by BMP7 stimulus, A549 cells
T1 sequence (P18075 293-431): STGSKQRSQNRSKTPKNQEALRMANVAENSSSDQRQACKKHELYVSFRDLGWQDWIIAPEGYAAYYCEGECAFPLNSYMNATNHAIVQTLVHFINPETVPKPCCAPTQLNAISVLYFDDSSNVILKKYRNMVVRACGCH
In short: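 Cell line A549; stimulus BMP7 10 nM; endpoint pSMAD1. Peptide doses: three concentrations (1–1,000 nM range) or 8 × 1/3 dilutions from 100/1,000 nM.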

BMP6 = target: T2, BMP6 (Homo sapiens, UniProt P22004); test: BMP family signal transduction inhibition (SMAD1 phosphorylation), BMP6 stimulus
T2 sequence (P22004 375-513): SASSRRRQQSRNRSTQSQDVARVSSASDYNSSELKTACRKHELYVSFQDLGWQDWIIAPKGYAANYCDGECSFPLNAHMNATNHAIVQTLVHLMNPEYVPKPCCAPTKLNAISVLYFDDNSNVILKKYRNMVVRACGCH
Text: (§1) In the present Example, BMP4 signal transduction inhibition peptide No. 177, peptide No. 29986 (SEQ ID NO: 277 (Example 8)), and peptide SEQ ID NO: 417 (Example 6) synthesized in Example 2, Example 8, and Example 6 were verified in the same manner as in Example 13 in order to confirm presence or absence of signal transduction inhibitory activities obtained by BMPs 2, 5, 6, 9, 12, and 14 belonging to the respective BMP families.
(§2) Regarding the concentrations of the respective BMPs in the evaluation, 0.3 nM of BMP2, 2 nM of BMP5, 3 nM of BMP6, 10 nM of BMP9 and BMP12, and 0.6 nM of BMP14 were added, followed by application of stimulus.
(§3) Regarding No. 177, the concentrations of the peptides were as follows. Specifically, eight concentrations of the peptides were used at a common ratio of 1/3 starting from 10 nM (BMP2), starting from 200 nM (BMP5), starting from 100 nM (BMP6), starting from 1,000 nM (BMP9 and BMP12), and starting from 60 nM (BMP14). The evaluation was performed in the same manner as in Example 11 except for the above points. Note that recombinant Human Noggin Protein (R&D) as a positive control was used at the same concentration as the peptide.
(§4) Regarding the peptide SEQ ID NO: 277 (Example 8), the concentrations of the peptides were as follows. […]

BMP2 = target: T3, BMP2 (Homo sapiens, UniProt P12643); test: BMP family signal transduction inhibition (SMAD1 phosphorylation), BMP2 stimulus
T3 sequence (P12643 283-396): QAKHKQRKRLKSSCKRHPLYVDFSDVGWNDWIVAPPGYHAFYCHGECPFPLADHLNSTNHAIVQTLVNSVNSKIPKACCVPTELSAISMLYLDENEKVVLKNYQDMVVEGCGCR
Text: as §1, §2, §3, §4

With `CC(C)[C@@H]1NC(=O)[C@H](CCCNC(=N)N)NC(=O)[C@H](CCCCC(=O)O)NC(=O)CSC[C@@H](C(=O)NCCC(=O)NC(CCC(=O)O)C(=O)O)NC(=O)[C@H](CO)NC(=O)[C@H](Cc2ccc(C(=O)O)cc2)NC(=O)[C@H](Cc2ccc(C(=O)O)cc2)NC(=O)[C@H](Cc2ccc(O)cc2)NC(=O)[C@H](Cc2ccc(-c3ccccc3)cc2)CC(=O)[C@@H]2CCCN2C(=O)[C@H](Cc2ccc(O)cc2)NC(=O)[C@@H]2CCCN2C(=O)[C@H](Cc2ccc(-c3ccccc3)cc2)NC(=O)[C@H](CCCNC(=N)CN)NC(=O)[C@H](CC(=O)O)NC(=O)[C@H](CC2CCOCC2)NC(=O)[C@H](Cc2ccc(C(=O)O)cc2)NC1=O` (stereo partly drawn) [SEQ ID No. 177] ({CH2CO}-[Nle(6-COOH)]RV[Phe(4-COOH)][Ala(4-THP)]D[X1][Bip]PY[X2]Y[Phe(4-COOH)][Phe(4-COOH)]SC[βAla][ξE]-OH; thioether N-16) the “BMP7 inhibitory activity (in words)” value (BMP7) was “same level of the BMP7 inhibitory activity as Noggin; also recorded: signal transduction inhibitory activities of BMP4 and BMP7”, the “BMP6 signal transduction inhibitory activity (in words)” value (BMP6) was “signal transduction inhibitory activities of BMP2, BMP5, and BMP6” and the “BMP2 signal transduction inhibitory activity (in words)” value (BMP2) was “signal transduction inhibitory activities of BMP2, BMP5, and BMP6”.
